{"source": "patent US8217071B2", "about": "“Use of inhibitors of the degradation of p27, in particular Argyrin and derivatives thereof, for the treatment of proliferative diseases” (Helmholtz Zentrum für Infektionsforschung GmbH, priority 2007, dated 2012)", "key": {"20S proteasome": {"tested_on": "20S proteasome", "experiment": "20S proteasome activity in peripheral blood cells after i.p. injection", "format": "in vivo, mouse", "conditions": "peripheral blood lymphocytes", "description": "The inventors therefore tested if Argyrin A induced p27^kip1 stabilization would be beneficial in the treatment of human colon cancer cell derived tumour xenografts. To analyze this the inventors first tested if Argyrin A was active after application in vivo. After intraperitoneal injection of Argyrin A, 20S proteasome was isolated from peripheral blood lymphocytes at different time points after injection. […] Based on this finding the inventors treated tumour bearing mice with 0.15 mg Argyrin per kilogram bodyweight injected intraperitoneally every three days.\nAt the indicated timepoints 20S proteasome was isolated from peripheral blood cells and the activity of the different proteasome subunits was determined as described (FIG. 1d). b) SW480 colon carcinoma cell lines mixed with matrigel were injected under the skin of nu/nu mice to establish xenotransplant tumours. Treatment with Argyrin A or bortezomib was started when these tumours reached a volume of 200 mm^3. […] The activity of the respective proteasome subunits was determined as described previously (FIG. 1d). e) Determination of the number of p27^kip1 positive cells in tumour tissue after Argyrin A treatment. […] At least 200 cells were counted on five independent sections to quantitate the number of apoptotic cells. […]\nProteasome assays using proteasome purified from cells or tissues were carried out in a 100 μL reaction volume containing 20 μg proteasome extract, 50 mmol/L EDTA and 60 μmol/L fluorogenic substrate (chymotrypsin-like (CT-L), trypsin-like (T-L) or caspase-like (C-L)) in ATP/DTT lysis buffer at 37° C. […] The rate of cleavage of fluorogenic peptide substrates was determined by monitoring the fluorescence of released amonomethylcoumarin using a Victor 1420 Multilabel counter (Wallac) at an excitation wavelength of 395 nm and emission wavelength of 460 nm over a period of 60 min."}, "[1]": {"molecular_target": "T1, purified human 20S proteasome (Homo sapiens, UniProt P28072+P28074+Q99436)", "T1 construct": "using erythrocyte-derived 20S proteasome (Biomol International, #LP PW8720); purchased Biomol International #LP PW8720; host or cells: human erythrocytes", "experiment": "Proteasome assay with purified 20S proteasome, fluorogenic peptide substrates", "format": "biochemical", "conditions": "purified human erythrocyte derived 20S proteasome", "description": "(§1) The expression levels of p27^kip1 were determined at the indicated timepoints by western blotting and normalized against actin expression which was used as an internal control.\nProteasome assays with purified 20S proteasome were performed as previously described (Lightcap, E. S. et al. Proteasome inhibition measurements: clinical application. Clin Chem 46, 673-83 (2000)) using erythrocyte-derived 20S proteasome (Biomol International, #LP PW8720) and fluorometric substrates Succ-LLVY-AMC, BZ-VGR-AMC and Z-Lle-AMC (Biomol International, LP PW9905) as probes according to the manufacturers instructions. Proteasome extraction from cells and tumour sections was done as previously described (Crawford, L. J. et al. Comparative selectivity and specificity of the proteasome inhibitors BzLLLCOCHO, PS-341, and MG-132. Cancer Res 66, 6379-86 (2006)). Briefly cells (MEF or MCF-7) or tissue sample homogenate (tumour sections) were re-suspended in 1 mL ATP/DTT lysis buffer (10 mmol/L Tris-HCl (pH 7.8), 5 mmol/L ATP, 0.5 mmol/L DTT, 5 mmol/L MgCl2), and incubated on ice for 10 minutes, followed by sonication for 15 seconds. […] Protein concentration of the samples was measured using a coomassie protein assay (Pierce, Rockford, Ill.)."}, "[2]": {"tested_on": "HCT116 colon carcinoma cells", "experiment": "Flow cytometry cell cycle / sub-G1 analysis", "format": "cell-based, human", "conditions": "at ranges of IC50", "description": "as §1\n(§2) MTT assays were done as previously described (Sasse, F. et al. Argyrins, immunosuppressive cyclic peptides from myxobacteria. I. Production, isolation, physico-chemical and biological properties. J Antibiot (Tokyo) 55, 543-51 (2002)). TUNEL staining of tissue sections was performed on 10 micrometer sections which were deparafinised and treated as recommended by the manufacturer. (In Situ Cell Death Detection Kit, Fluorescein; ROCHE, Cat #11 684 795 910). Flow cytometric analysis of cultured cells was done using a Becton Dickinson fluorescence cytometer as previously described (Malek, N. P. et al. A mouse knock-in model exposes sequential proteolytic pathways that regulate p27^Kip1 in G1 and S phase. Nature 413, 323-7 (2001)). Analysis of the distribution of cells in the cell cycle and the sub-G1 fraction was done using Cell Quest software. A histone-associated-DNA-fragments ELISA was used to determine the number of apoptotic cells according to manufacturers instructions (Roche #11 774425001)."}, "MCF7 (breast cancer)": {"tested_on": "MCF7 (breast cancer)", "experiment": "Flow cytometry cell cycle / sub-G1 analysis", "format": "cell-based, human", "conditions": "at ranges of IC50; sub G1 phase fraction", "description": "as §1, §2"}, "A549 (lung cancer)": {"tested_on": "A549 (lung cancer)", "experiment": "Flow cytometry cell cycle / sub-G1 analysis", "format": "cell-based, human", "conditions": "at ranges of IC50", "description": "as §1, §2"}, "[3]": {"tested_on": "SW480 colon carcinoma cell line", "experiment": "Flow cytometry cell cycle / sub-G1 analysis", "format": "cell-based, human", "conditions": "at ranges of IC50; sub G1 phase fraction", "description": "as §1, §2"}, "HeLa (cervix carcinoma)": {"tested_on": "HeLa (cervix carcinoma)", "experiment": "Flow cytometry cell cycle / sub-G1 analysis", "format": "cell-based, human", "conditions": "at ranges of IC50; sub G1 phase fraction", "description": "as §1, §2"}, "[4]": {"tested_on": "CaCo colon carcinoma cell line", "experiment": "Flow cytometry cell cycle / sub-G1 analysis", "format": "cell-based, human", "conditions": "at ranges of IC50; sub G1 phase fraction", "description": "as §1, §2"}}, "note": "Numbered stars: 1 amine (or outer) side, 2 acyl side, 3 side chain; on linkers, the order of the positions; unused ones are H or OH. Square brackets hold non-standard residues; d marks the D form. Peptide text beside a SMILES is read from it. dAla(ψthiazole) = C[C@@H](N[*:1])c1nc(C(=O)[*:2])cs1; Trp(4-OMe) = COc1cccc2[nH]cc(C[C@H](N)C(=O)O)c12; Dha = C=C(N)C(=O)O; Sar = CNCC(=O)O"}
{"smiles": "C=C1NC(=O)[C@@H](C)NC(=O)CNC(=O)[C@H](Cc2c[nH]c3cccc(OC)c23)NC(=O)[C@H](Cc2c[nH]c3ccccc23)NC(=O)c2csc(n2)[C@@H](C)NC(=O)CN(C)C1=O", "note": "[Argyrin A] (cyclo(W[Trp(4-OMe)]G[dA][Dha][Sar][dAla(ψthiazole)]))", "values": [{"measurement": "time at which all activities returned to base-line levels post injection", "setting": "20S proteasome; i.p.", "result": 72, "unit": "h"}, {"measurement": "time of maximum inhibitory activity post injection", "setting": "20S proteasome; i.p.", "result": 48, "unit": "h"}, {"measurement": "proteasome activities after i.p. application", "setting": "20S proteasome; mice", "result": "inhibited all proteasome activities"}, {"measurement": "caspase, trypsin and chymotrypsin like proteasome activities", "setting": "[1]", "result": "dose dependent inhibition"}, {"measurement": "cellular phenotype", "setting": "[2]", "result": "stopped to proliferate"}, {"measurement": "cellular phenotype", "setting": "MCF7 (breast cancer)", "result": "underwent apoptosis"}, {"measurement": "cellular phenotype", "setting": "A549 (lung cancer)", "result": "stopped to proliferate"}, {"measurement": "cellular phenotype", "setting": "[3]", "result": "underwent apoptosis"}, {"measurement": "cellular phenotype", "setting": "HeLa (cervix carcinoma)", "result": "underwent apoptosis"}, {"measurement": "cellular phenotype", "setting": "[4]", "result": "underwent apoptosis"}]}
